The values below are quoted from earlier work in US7884104B2, “Aminopiperidines as dipeptidyl peptidase-IV inhibitors for the treatment or prevention of diabetes” (Merck Sharp & Dohme Corp., priority 2004, dated 2011).

The test system of one data set is cardiac allograft. Conditions: rats; doubled from day 7 to day 14.
The next data set addresses T1, DPP-IV (Homo sapiens, UniProt P27487).
T1 construct: GRF is rapidly degraded in plasma to GRF[344]; host or cells: plasma (endogenous enzyme activity)

For another data set, the system named is hematopoiesis. Conditions: mouse, cyclophosphamide-induced neutropenia.

T1 sequence (P27487 39-766 limits assumed, species assumed): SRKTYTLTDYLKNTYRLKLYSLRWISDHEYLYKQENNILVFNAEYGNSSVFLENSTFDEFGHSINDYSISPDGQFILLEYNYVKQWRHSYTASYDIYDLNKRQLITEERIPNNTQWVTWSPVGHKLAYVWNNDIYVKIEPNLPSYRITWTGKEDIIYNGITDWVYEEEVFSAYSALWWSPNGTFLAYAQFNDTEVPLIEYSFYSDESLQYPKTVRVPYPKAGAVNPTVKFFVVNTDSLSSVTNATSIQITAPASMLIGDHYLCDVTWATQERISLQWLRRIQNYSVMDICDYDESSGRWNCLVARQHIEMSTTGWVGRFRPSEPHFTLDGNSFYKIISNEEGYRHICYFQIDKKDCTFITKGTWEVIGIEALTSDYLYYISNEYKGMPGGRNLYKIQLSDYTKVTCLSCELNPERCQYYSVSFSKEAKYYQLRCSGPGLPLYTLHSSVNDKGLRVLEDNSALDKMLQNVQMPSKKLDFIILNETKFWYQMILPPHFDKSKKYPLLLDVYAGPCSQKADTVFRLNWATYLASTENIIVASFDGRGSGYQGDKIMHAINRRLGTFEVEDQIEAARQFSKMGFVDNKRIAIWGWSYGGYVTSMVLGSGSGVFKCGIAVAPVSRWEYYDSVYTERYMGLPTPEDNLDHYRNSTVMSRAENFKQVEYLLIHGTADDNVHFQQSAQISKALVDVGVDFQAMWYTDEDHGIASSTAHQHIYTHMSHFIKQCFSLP

As for `CC(C)N1CCC(c2ccccc2)(c2ccccc2)CC1` [Prodipine, Pro-Pro-diphenyl-phosphonate], in the data set on cardiac allograft, the cardiac allograft survival is recorded as 14 day.

For diprotin A, at DPP-IV, the “effect on degradation of GRF in plasma” value is “prevented”.

Consider `CC(C)[C@H](N)C(=O)N1CCC[C@H]1B(O)O` [Val-Boro-Pro], for which, in the data set on hematopoiesis, the effect on hematopoiesis entry is listed as “stimulated hematopoiesis”.
